Measurements as given in ChEMBL document CHEMBL1158142, “Bionectins A-C, epidithiodioxopiperazines with anti-MRSA activity, from Bionectra byssicola F120” (2006).
Values after ≈ are worked out from the molar mass of the structure shown. Active and inactive are the calls of the source. The calls are words filed in the database; no cut-off is given here.

Key:
Staphylococcus aureus [1] = assay: Antibacterial activity against Staphylococcus aureus RN4220 up to 100 ug/mL after 24 hrs; type: functional, organism-based
Staphylococcus aureus [2] = assay: Antibacterial activity against methicillin-sensitive Staphylococcus aureus CCARM3505 up to 100 ug/mL after 24 hrs; type: functional, organism-based
Staphylococcus aureus [3] = assay: Antibacterial activity against methicillin-resistant Staphylococcus aureus CCARM3167 up to 100 ug/mL after 24 hrs; type: functional, organism-based
Staphylococcus aureus [4] = assay: Antibacterial activity against Staphylococcus aureus 503 up to 100 ug/mL after 24 hrs; type: functional, organism-based
Staphylococcus aureus [5] = assay: Antibacterial activity against methicillin-sensitive Staphylococcus aureus CCARM3519 up to 100 ug/mL after 24 hrs; type: functional, organism-based
Staphylococcus aureus [6] = assay: Antibacterial activity against methicillin-resistant Staphylococcus aureus CCARM3506 up to 100 ug/mL after 24 hrs; type: functional, organism-based
Staphylococcus aureus [7] = assay: Antibacterial activity against methicillin-resistant Staphylococcus aureus CCARM3167 after 24 hrs; type: functional
Staphylococcus aureus [8] = assay: Antibacterial activity against Staphylococcus aureus RN4220 after 24 hrs; type: functional; conditions: RN4220, 24 h
Staphylococcus aureus [9] = assay: Antibacterial activity against methicillin-sensitive Staphylococcus aureus CCARM3519 after 24 hrs; type: functional
Staphylococcus aureus [10] = assay: Antibacterial activity against methicillin-resistant Staphylococcus aureus CCARM3506 after 24 hrs; type: functional
Staphylococcus aureus [11] = assay: Antibacterial activity against Staphylococcus aureus 503 after 24 hrs; type: functional
Staphylococcus aureus [12] = assay: Antibacterial activity against methicillin-sensitive Staphylococcus aureus CCARM3505 after 24 hrs; type: functional

With CS[C@H]1C(=O)N2[C@H]3Nc4ccccc4[C@@]3(c3c[nH]c4ccccc34)[C@H](O)[C@]2(SC)C(=O)N1C the Activity (Staphylococcus aureus [1]) was “inactive”, the Activity (Staphylococcus aureus [2]) was “inactive” and the Activity (Staphylococcus aureus [3]) was “inactive”. For the same compound, the Activity (Staphylococcus aureus [4]) was “inactive”, the Activity (Staphylococcus aureus [5]) was “inactive” and the Activity (Staphylococcus aureus [6]) was “inactive”.
In the case of CN1C(=O)[C@]23SS[C@H]1C(=O)N2[C@H]1Nc2ccccc2[C@@]1(c1c[nH]c2ccccc12)[C@@H]3O [BIONECTIN A], the MIC (Staphylococcus aureus [7]) is reported as 30 µg/mL (≈ 66.6 µM), the MIC (Staphylococcus aureus [8]) is reported as 10 µg/mL (≈ 22.2 µM) and the MIC (Staphylococcus aureus [9]) is reported as 10 µg/mL (≈ 22.2 µM). The MIC (Staphylococcus aureus [10]) was 30 µg/mL (≈ 66.6 µM), the MIC (Staphylococcus aureus [11]) was 10 µg/mL (≈ 22.2 µM) and the MIC (Staphylococcus aureus [12]) was 10 µg/mL (≈ 22.2 µM).
CC(O)[C@@]12SS[C@]3(C(=O)N1C)[C@@H](O)[C@]1(c4c[nH]c5ccccc45)c4ccccc4N[C@@H]1N3C2=O (stereo not given in full) [BIONECTIN B] gave an MIC (Staphylococcus aureus [7]) of 10 µg/mL (≈ 20.2 µM), an MIC (Staphylococcus aureus [8]) of 30 µg/mL (≈ 60.7 µM) and an MIC (Staphylococcus aureus [9]) of 30 µg/mL (≈ 60.7 µM). For the same compound, the MIC (Staphylococcus aureus [10]) was 10 µg/mL (≈ 20.2 µM), the MIC (Staphylococcus aureus [11]) was 30 µg/mL (≈ 60.7 µM) and the MIC (Staphylococcus aureus [12]) was 30 µg/mL (≈ 60.7 µM).
With CN[C@H](CC(C)C)C(=O)N[C@H]1C(=O)N[C@@H](CC(N)=O)C(=O)N[C@H]2C(=O)N[C@H]3C(=O)N[C@H](C(=O)N[C@H](C(=O)O)c4cc(O)cc(O)c4-c4cc3ccc4O)[C@H](O)c3ccc(c(Cl)c3)Oc3cc2cc(c3O[C@@H]2O[C@H](CO)[C@@H](O)[C@H](O)[C@H]2O[C@H]2C[C@](C)(N)[C@H](O)[C@H](C)O2)Oc2ccc(cc2Cl)[C@H]1O [VANCOMYCIN] the MIC (Staphylococcus aureus [11]) was 0.25 µg/mL (≈ 0.173 µM).
CC(O)[C@@]12SS[C@]3(C(=O)N1C)[C@@H](O)C1([C@@]45c6ccccc6N[C@@H]4N4C(=O)[C@]6(C(C)O)SS[C@]4(C(=O)N6C)[C@H]5O)c4ccccc4N[C@@H]1N3C2=O (stereo not given in full) [VERTICILLIN D] gave an MIC (Staphylococcus aureus [7]) of 3 µg/mL (≈ 3.96 µM), an MIC (Staphylococcus aureus [8]) of 3 µg/mL (≈ 3.96 µM) and an MIC (Staphylococcus aureus [9]) of 10 µg/mL (≈ 13.2 µM). It also gave an MIC (Staphylococcus aureus [10]) of 3 µg/mL (≈ 3.96 µM), an MIC (Staphylococcus aureus [11]) of 3 µg/mL (≈ 3.96 µM) and an MIC (Staphylococcus aureus [12]) of 10 µg/mL (≈ 13.2 µM).
